{"source": "patent US11542471B2", "about": "“Method for producing ciliary marginal zone-like structure” (SUMITOMO CHEMICAL COMPANY, LIMITED, priority 2012, dated 2023)", "test_system": "cell aggregate containing a retinal tissue (RAX::GFP knock-in human ES cells, derived from KhES-1)", "assay": "Suspension culture of a human ES cell-derived cell aggregate containing retinal tissue in serum-free medium with a substance acting on the Wnt signal pathway; cryosection immunostaining", "format": "cell-based", "conditions": "3 μM CHIR99021, serum-free medium, 3 days from day 18 of suspension culture", "description": "The “proportion of Chx10 positive cells” in a retinal tissue contained in a cell aggregate produced as mentioned above can be examined by, for example, the following method. • (1) First, a cryosection of “a cell aggregate comprising a retinal tissue” is prepared. • (2) Then, immunostaining of Rax protein or, when a gene recombinant cell obtained by altering a Rax gene expressing cell to express a fluorescence protein such as GFP is used, the expression of the aforementioned fluorescence protein, is observed using a fluorescence microscope and so on, whereby a retinal tissue region expressing Rax gene is specified. • (3) Using the same section as the cryosection wherein the retinal tissue region expressing Rax gene has been specified or an adjacent section as a sample, the nucleus is stained with a nuclear staining reagent such as Dapi. Then, the number of stained nuclei in the above-specified retinal tissue region expressing Rax gene is counted, whereby the number of the cells in the retinal tissue region is measured. • (4) Using the same section as the cryosection wherein the retinal tissue region expressing Rax gene has been specified or an adjacent section as a sample, Chx10 protein is immunostained. […]"}
{"compound": "Cc1c[nH]c(-c2cnc(NCCNc3ccc(C#N)cn3)nc2-c2ccc(Cl)cc2Cl)n1", "note": "[CHIR99021]", "values": [{"measurement": "appearance of RPE65 gene expressing cell in the cell aggregate", "value": "did not appear"}, {"measurement": "proportion of Chx10 positive cells in the retinal tissue", "setting": "about 40% before addition", "value": "about 3%"}]}
